One block for each molecule: values may come before it.
Legend:
[1] = target: Ribosomal protein S6 kinase alpha-1 (Homo sapiens, UniProt Q15418); experiment: Selectivity interaction (Kinase panel (Z-LYTE Assay)) EUB0001632a RPS6KA1; settings: at 10 µM
[2] = target: T1, Hormonally up-regulated neu tumor-associated kinase (Homo sapiens) (UniProt P57058); experiment: Selectivity interaction (LanthaScreen Eu Kinase Binding Assay) EUB0001632a HUNK; settings: at 10 µM
T1 sequence (whole entry): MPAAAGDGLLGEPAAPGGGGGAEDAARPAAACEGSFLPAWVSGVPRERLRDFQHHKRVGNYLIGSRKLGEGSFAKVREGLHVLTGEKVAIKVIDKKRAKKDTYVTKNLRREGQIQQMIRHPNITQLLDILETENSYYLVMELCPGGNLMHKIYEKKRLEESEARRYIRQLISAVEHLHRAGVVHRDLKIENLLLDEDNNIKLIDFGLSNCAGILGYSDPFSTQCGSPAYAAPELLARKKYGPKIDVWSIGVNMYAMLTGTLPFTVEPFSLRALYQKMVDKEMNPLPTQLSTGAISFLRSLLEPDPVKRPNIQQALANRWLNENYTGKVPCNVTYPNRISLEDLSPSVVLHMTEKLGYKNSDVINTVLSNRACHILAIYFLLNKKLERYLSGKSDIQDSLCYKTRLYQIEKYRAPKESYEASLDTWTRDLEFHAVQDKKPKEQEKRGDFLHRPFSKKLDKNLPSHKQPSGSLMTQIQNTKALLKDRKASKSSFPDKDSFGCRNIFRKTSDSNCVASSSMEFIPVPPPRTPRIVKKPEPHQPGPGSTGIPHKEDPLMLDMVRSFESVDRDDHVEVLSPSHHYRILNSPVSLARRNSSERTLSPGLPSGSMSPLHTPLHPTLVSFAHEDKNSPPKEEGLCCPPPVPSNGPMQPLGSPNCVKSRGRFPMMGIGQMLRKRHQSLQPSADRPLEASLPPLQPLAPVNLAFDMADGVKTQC

[3] = target: Small conductance calcium-activated potassium channel protein 1 (Homo sapiens) (UniProt Q92952); experiment: Selectivity interaction (Eurofins CEREP Diversity Profile (receptors and ion channels)) EUB0000279b KCNN1; settings: at 10 µM
[4] = target: Myosin-IIIa (Homo sapiens) (UniProt Q8NEV4); experiment: Selectivity interaction (KinomeScan (DiscoverX)) EUB0000666a MYO3A; settings: at 10 µM
[5] = target: Serine/threonine-protein kinase MARK1 (Homo sapiens) (UniProt Q9P0L2); experiment: Selectivity interaction (Upstate Kinase Profiler service (Millipore)) EUB0000056c MARK1; settings: at 1 µM
[6] = target: T2, Activin receptor type-1 (Homo sapiens) (UniProt Q04771); experiment: Selectivity interaction (Kinase panel (Invitrogen)) EUB0000639a ACVR1; settings: at 200 nM
T2 sequence (whole entry): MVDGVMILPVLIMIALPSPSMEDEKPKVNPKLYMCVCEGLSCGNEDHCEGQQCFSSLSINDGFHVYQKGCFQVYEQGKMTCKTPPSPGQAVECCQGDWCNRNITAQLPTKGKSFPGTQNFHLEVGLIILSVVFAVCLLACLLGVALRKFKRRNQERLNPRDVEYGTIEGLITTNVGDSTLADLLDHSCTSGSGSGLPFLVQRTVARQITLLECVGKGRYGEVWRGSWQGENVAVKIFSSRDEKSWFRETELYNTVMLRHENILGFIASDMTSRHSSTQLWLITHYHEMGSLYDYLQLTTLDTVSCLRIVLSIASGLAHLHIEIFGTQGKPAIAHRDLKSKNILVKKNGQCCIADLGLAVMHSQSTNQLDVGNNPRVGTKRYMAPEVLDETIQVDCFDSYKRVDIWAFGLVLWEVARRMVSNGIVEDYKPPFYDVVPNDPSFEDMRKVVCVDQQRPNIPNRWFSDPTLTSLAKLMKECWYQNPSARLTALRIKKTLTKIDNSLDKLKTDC

[7] = target: T3, Aurora kinase A (Homo sapiens) (UniProt O14965); experiment: Selectivity interaction (ActivX KiNativ screen (kinase selectivity in THP-1 cell lysates)) EUB0000639a STK6; type: subcellular; settings: lysate, at 0.2 µM
T3 sequence (whole entry): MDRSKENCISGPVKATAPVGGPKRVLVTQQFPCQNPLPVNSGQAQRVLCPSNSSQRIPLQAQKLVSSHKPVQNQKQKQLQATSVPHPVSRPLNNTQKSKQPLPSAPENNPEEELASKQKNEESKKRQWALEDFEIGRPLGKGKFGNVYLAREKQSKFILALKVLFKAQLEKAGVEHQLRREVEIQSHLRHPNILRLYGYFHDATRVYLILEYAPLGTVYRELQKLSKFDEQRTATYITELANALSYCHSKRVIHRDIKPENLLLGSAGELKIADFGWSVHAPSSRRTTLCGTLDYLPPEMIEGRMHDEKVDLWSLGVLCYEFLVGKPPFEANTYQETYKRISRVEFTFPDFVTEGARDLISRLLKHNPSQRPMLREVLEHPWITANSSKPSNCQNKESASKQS

[8] = target: Fibroblast growth factor receptor 3 (Homo sapiens, UniProt P22607); experiment: Selectivity interaction (Kinase panel (Invitrogen)) EUB0000639a FGFR3; settings: at 200 nM
[9] = target: RAF proto-oncogene serine/threonine-protein kinase (Homo sapiens) (UniProt P04049); experiment: Selectivity interaction (KinomeScan (DiscoverX)) EUB0000695a RAF1; settings: at 100 nM
[10] = target: Mitogen-activated protein kinase kinase kinase 10 (Homo sapiens) (UniProt Q02779); experiment: Selectivity interaction (KinomeScan (DiscoverX)) EUB0001049a MAP3K10; settings: at 1 µM
[11] = target: T4, cAMP-dependent protein kinase catalytic subunit PRKX (Homo sapiens) (UniProt P51817); experiment: Selectivity interaction (Ambit KINOMEscan and KiNATiv profiling in Jurkat cells) EUB0000090b PRKX; type: cell-based; settings: at 1 µM
T4 sequence (whole entry): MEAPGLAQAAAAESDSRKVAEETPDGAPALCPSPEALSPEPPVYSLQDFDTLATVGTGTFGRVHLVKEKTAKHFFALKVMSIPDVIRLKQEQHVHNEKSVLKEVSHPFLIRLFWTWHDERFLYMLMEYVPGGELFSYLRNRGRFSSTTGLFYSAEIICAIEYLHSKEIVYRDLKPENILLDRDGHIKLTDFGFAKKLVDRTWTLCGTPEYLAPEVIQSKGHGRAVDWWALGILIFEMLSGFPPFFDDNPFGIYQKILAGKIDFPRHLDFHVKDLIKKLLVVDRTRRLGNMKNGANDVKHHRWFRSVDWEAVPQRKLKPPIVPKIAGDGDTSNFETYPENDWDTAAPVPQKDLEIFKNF

[12] = target: RAF proto-oncogene serine/threonine-protein kinase (Homo sapiens) (UniProt P04049); experiment: Selectivity interaction (KinomeScan (DiscoverX)) EUB0001079a RAF1; settings: at 1 µM
[13] = target: Mitogen-activated protein kinase kinase kinase kinase 5 (Homo sapiens) (UniProt Q9Y4K4); experiment: Selectivity interaction (KinomeScan (DiscoverX)) EUB0001550a MAP4K5; settings: at 1 µM
[14] = target: Protein kinase C delta type (Homo sapiens) (UniProt Q05655); settings: at 10 µM
[15] = target: Serine/threonine-protein kinase pim-3 (Homo sapiens) (UniProt Q86V86); settings: at 10 µM

Chain of RAF proto-oncogene serine/threonine-protein kinase (Homo sapiens) (P04049 whole entry): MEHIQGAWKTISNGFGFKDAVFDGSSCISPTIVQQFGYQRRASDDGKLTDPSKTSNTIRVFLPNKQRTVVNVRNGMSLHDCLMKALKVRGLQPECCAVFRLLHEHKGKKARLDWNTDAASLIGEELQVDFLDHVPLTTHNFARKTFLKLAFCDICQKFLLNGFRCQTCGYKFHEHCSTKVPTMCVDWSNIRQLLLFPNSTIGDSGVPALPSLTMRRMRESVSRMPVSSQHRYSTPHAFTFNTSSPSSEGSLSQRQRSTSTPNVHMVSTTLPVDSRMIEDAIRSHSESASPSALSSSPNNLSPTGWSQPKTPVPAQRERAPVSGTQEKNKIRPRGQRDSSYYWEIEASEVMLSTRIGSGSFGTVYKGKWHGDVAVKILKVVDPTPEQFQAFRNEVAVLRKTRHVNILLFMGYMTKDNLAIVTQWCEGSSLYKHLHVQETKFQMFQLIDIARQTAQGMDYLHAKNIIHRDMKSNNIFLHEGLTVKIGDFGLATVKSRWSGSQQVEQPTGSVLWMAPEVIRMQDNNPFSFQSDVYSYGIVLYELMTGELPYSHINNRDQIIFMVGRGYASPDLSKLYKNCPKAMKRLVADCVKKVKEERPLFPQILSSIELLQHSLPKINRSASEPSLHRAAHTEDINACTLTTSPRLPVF
Chain of Mitogen-activated protein kinase kinase kinase kinase 5 (Homo sapiens) (Q9Y4K4 whole entry, looked up): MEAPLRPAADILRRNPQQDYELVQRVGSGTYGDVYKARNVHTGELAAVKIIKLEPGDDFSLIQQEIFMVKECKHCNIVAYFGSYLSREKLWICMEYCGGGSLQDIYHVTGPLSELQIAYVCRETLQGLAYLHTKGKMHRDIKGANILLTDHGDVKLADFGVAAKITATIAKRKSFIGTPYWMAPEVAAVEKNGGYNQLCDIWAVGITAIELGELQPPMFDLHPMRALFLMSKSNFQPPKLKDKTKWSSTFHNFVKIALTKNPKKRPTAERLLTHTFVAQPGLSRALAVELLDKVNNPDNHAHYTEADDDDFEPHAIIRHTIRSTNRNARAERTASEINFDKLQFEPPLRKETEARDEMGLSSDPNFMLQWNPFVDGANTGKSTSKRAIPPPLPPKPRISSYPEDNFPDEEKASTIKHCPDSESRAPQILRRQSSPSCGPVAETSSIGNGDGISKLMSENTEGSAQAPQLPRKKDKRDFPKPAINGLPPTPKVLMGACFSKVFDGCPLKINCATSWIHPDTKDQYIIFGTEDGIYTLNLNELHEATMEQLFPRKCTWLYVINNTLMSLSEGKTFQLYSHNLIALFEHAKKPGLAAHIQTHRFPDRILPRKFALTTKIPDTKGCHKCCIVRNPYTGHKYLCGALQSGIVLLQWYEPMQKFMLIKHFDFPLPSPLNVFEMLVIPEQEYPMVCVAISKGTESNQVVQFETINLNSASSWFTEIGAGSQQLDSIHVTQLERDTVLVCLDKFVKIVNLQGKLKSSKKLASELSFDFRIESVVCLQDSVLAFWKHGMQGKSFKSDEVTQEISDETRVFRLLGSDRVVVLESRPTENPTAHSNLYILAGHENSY
Chain of Fibroblast growth factor receptor 3 (P22607 23-806 limits assumed): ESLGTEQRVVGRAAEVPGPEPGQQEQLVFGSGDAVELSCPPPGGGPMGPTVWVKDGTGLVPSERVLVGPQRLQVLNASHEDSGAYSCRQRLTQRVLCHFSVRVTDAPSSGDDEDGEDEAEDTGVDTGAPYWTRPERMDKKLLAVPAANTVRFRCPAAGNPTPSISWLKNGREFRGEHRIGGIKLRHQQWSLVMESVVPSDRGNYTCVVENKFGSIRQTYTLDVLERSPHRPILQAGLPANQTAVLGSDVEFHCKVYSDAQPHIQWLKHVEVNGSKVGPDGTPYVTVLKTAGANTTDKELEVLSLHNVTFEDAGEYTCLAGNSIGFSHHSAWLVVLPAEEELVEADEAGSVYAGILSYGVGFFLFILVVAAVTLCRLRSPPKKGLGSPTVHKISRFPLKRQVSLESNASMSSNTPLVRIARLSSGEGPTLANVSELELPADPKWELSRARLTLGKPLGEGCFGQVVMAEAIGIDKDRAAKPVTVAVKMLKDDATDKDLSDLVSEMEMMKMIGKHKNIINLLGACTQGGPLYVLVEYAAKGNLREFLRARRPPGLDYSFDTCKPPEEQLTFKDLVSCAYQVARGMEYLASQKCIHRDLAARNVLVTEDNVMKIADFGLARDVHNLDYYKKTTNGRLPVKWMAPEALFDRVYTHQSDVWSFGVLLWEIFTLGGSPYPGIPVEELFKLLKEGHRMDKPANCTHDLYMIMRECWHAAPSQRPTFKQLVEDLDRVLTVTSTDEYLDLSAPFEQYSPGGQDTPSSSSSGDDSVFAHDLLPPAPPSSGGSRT
Chain of Small conductance calcium-activated potassium channel protein 1 (Homo sapiens) (Q92952 whole entry): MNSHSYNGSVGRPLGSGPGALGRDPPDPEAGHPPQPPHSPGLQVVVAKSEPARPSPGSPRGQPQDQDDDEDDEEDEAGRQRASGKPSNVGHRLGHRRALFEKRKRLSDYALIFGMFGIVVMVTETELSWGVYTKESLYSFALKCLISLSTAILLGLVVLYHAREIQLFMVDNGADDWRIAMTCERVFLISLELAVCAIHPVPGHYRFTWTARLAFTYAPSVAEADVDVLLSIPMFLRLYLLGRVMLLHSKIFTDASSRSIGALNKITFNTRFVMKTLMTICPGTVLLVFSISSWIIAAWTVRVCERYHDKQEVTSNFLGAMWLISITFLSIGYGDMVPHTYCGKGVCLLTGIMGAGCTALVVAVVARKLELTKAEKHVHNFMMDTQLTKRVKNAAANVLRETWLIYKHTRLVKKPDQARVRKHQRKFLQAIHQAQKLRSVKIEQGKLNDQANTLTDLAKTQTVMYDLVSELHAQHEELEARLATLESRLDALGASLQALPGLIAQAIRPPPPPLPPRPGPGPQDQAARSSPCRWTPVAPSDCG
Chain of Serine/threonine-protein kinase MARK1 (Homo sapiens) (Q9P0L2 whole entry, looked up): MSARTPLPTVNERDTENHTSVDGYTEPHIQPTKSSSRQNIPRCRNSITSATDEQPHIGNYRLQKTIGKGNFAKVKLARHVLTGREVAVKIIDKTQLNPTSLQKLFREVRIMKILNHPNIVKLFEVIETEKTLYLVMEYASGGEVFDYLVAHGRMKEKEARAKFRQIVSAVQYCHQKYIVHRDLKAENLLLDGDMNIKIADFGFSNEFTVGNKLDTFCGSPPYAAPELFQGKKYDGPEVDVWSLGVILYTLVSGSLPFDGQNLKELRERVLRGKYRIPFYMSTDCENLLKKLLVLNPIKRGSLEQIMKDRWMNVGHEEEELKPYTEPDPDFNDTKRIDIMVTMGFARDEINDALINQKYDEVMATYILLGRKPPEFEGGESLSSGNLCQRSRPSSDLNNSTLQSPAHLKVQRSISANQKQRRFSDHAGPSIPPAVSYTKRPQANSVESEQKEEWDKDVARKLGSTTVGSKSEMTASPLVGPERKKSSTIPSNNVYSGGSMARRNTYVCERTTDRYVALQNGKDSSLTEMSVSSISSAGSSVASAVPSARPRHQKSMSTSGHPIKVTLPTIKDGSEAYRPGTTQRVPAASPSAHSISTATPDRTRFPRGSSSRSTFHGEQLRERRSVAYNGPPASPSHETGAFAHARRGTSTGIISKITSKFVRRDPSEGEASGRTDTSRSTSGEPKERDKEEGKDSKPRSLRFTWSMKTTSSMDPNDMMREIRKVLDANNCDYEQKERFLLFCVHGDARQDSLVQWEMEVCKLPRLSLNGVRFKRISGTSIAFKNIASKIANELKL
Chain of Protein kinase C delta type (Homo sapiens) (Q05655 whole entry, looked up): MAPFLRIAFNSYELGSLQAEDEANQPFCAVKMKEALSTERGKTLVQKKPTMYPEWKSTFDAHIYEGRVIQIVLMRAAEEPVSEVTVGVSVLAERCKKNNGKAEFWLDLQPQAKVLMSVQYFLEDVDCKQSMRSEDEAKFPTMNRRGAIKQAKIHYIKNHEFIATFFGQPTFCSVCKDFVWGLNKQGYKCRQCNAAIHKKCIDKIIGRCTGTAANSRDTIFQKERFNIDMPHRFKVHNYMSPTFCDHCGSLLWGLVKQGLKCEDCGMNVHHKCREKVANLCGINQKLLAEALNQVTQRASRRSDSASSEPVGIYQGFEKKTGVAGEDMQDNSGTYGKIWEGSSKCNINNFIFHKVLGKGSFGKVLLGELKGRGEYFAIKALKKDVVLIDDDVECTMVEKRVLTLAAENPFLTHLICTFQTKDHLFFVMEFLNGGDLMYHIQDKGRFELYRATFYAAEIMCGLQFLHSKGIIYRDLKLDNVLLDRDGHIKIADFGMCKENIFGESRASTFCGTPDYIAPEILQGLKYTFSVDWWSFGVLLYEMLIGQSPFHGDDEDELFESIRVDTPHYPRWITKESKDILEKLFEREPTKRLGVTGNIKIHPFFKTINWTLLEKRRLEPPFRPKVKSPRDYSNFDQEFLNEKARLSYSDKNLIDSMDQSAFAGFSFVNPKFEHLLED

- % of control [1]: -6.37%
- % of inhibition [2]: -12%
SMILES: Cn1cc(-n2cnc3c(NCc4nc5cc(Cl)c(Cl)cc5[nH]4)nc(N4CCOCC4)nc32)cn1

- % of control [3]: 110%
SMILES: CC(=O)c1cc(-c2ccccc2OCC2CC2)c2ncccn12

SMILES: O=C(NOC[C@H](O)CO)c1ccc(F)c(F)c1Nc1ccc(I)cc1F
- % of control [4]: 47%

- % of inhibition [5]: 5%
SMILES: Cc1ccc(-c2ccc3c(ccc4sc5c(c43)NC[C@@H](C)NC5=O)n2)cn1

- % of inhibition [6]: 25.7%
- % of inhibition [7]: -1%
- % of inhibition [8]: 2.45%
SMILES: CC[C@@H]1[C@H](F)C(=O)N[C@@H]1COc1nccc2cc(C(N)=O)c(OC)cc12 [ZIMLOVISERTIB]

SMILES: Cc1cc(F)c(C(=O)Nc2cccc(-c3nncn3C(C)C)n2)cc1-n1cnc(C2CC2)c1
- % of control [9]: 79%

SMILES: COc1cc(Nc2nc(C)cc(-c3cnn4nc(OC)ccc34)n2)cc(C(F)(F)F)c1
- % of control [10]: 100%

SMILES: CN(C)C/C=C/C(=O)Nc1ccc(C(=O)N2CCCC(Nc3ncc(Cl)c(-c4c[nH]c5ccccc45)n3)C2)cc1 (stereo not given)
- % of control [11]: 89%

SMILES: Nc1cnc(N2CCc3cc(S(=O)(=O)Nc4c(F)cc(Cl)cc4F)cc(N4CCCC4=O)c32)nc1 [TP-020n]
- % of control [12]: 79%

- % of control [13]: 96%
SMILES: CN(C)CC#Cc1ccc2[nH]c3c(c2c1)-c1nc(N)ncc1CCC3

SMILES: Cc1cc([C@@H](C)Nc2ccccc2C(=O)O)c2nc(N3CCOCC3)cc(=O)n2c1 [AZD-6482]
- % of control [14]: 82%
- % of control [15]: 100%
